Experimental data from patent US8765675B2, “Use of calcitonin in osteoarthritis” (Novartis AG, priority 2003, dated 2014).
One block for each compound: values may come before it. Where no end group is shown, it is not given here.

Key:
[1] = tested on: cartilage; conditions: cited from earlier work
[2] = tested on: animal epiphyseal cartilage, rabbit and human cartilage; conditions: in vitro; cited from earlier work
[3] = tested on: urinary collagen type II degradation products (CTX-II); test: 3-month oral sCT treatment, 24 hours urinary CTX-II corrected for creatinine; format: in vivo, human
Description: (§1) Women receive treatment with either daily (0.15, 0.4, 1.0, or 2.5 mg) orally dosed sCT (see below for pharmaceutical compositions) combined with eligen technology-based carrier molecule (200 mg), or placebo for 3 months. All participants receive a calcium supplement of 1000 mg plus 400 IU of vitamin D daily throughout the study. Efficacy parameters are 24 hours urinary C-terminal telopeptide of collagen type I (CTX-I) and CTX-II corrected for creatinine excretion assessed at baseline and after 3-month therapy.
(§2) C-telopeptide of type I collagen (CTX I) is considered to be a specific marker sensitive to bone resorption; conversely, type II collagen C-telopeptide (CTX-II) is considered to be a useful cartilage marker.

[4] = tested on: urinary C-terminal telopeptide of collagen type I (CTX-I); test: 3-month oral sCT treatment, 24 hours urinary CTX-I corrected for creatinine; format: in vivo, human; conditions: 1.0 mg sCT daily oral, 3-month treatment, compared to placebo group, p<0.001
Description: as §1, §2

[5] = Water solubility of delivery agent
[6] = in vivo

Compound: calcitonin (CGNLSTCMLGTYTQDFNKFHTFPQTAIGVGAP; ends and bridges not checked; cysteine pairing not given here; UniProt P01258 85-116, looked up) [origin not specified in cited studies]
effect on cartilage ([1]; another menisectomy model (Colombo 1983)): no effect on cartilage
effect on cartilage destruction ([1]; rabbits treated with steroids, partial menisectomy or joint immobilization (Badurski 1991)): prevent cartilage destruction
effect on proteoglycan and collagen synthesis in cartilage [2]: stimulate proteoglycan and collagen synthesis

Compound: salmon calcitonin [sCT]
decrease in urinary CTX-II after 3-month treatment ([3]; 0.4 mg sCT daily oral, postmenopausal women, compared to placebo, p=0.04): −15.2%
decrease in urinary CTX-II after 3-month treatment ([3]; 1.0 mg sCT daily oral, postmenopausal women, compared to placebo, p=0.009): −19.7%
decrease in urinary CTX-II after 3-month treatment ([3]; 1.0 mg sCT, women in the highest tertile of baseline urinary CTX-II): −36.6%
decrease in urinary CTX-II after 3-month treatment ([3]; 1.0 mg sCT, women in the lowest tertile of baseline urinary CTX-II): −9.9%
decrease in urinary CTX-II after 3-month treatment ([3]; 2.5 mg sCT daily oral, postmenopausal women, compared to placebo, p=0.02): −17.5%
24 hours urinary CTX-II response to oral sCT, dose relationship ([3]; 0.15, 0.4, 1.0, 2.5 mg daily, 3 months, ANOVA=0.012): clear and significant dose dependent relationship
reduction in 24-hours urinary CTX-I [4]: −41.0%

water solubility [5]: very water soluble
Compound: O=C(O)CCCCCCCNC(=O)c1cc(Cl)ccc1O [5 CNAC, N-(5-chlorosalicyloyl)-8-aminocaprylic acid]

absorbed by the gastro-intestinal tract [6]: more than 90%
Compound: O=C(O)CCCCCCCCCNC(=O)c1ccccc1O [SNAD, N-(10-[2-hydroxybenzoyl]amino)decanoic acid]
